Source: patent US8623859B2, “Bradykinin B1 antagonists” (Evotec AG, priority 2008, dated 2014)
pIC50: −log10 of the molar value. Where a name gives a salt, the structure may show the parent alone.

Molecular target: T1, human B1 (Homo sapiens, UniProt P46663)
T1 construct: host or cells: CHO-K1
T1 sequence (P46663 1-353): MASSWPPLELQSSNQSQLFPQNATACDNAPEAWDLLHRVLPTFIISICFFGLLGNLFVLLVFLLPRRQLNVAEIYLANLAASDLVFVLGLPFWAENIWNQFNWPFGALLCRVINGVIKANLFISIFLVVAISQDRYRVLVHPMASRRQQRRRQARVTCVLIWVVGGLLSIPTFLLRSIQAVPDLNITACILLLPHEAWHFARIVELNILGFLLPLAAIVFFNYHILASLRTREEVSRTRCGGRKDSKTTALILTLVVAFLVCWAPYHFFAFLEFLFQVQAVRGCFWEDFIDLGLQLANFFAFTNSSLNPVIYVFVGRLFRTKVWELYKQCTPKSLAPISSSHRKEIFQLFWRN
Experiment: Calcium flux assay for Bradykinin B1 antagonist, CHO-K1 cell line expressing human B1
Assay type: cell-based
Conditions: CHO-K1 cells expressing human B1, agonist Lys-(Des-Arg)-Bradykinin, read-out: Potency (IC50 value against human B1)
In short: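 CHO-K1 cells expressing human B1, loaded with 5 μM Fluo-4AM (2 h, 37° C) in HEPES buffer pH 7.4 with probenecid and 0.1% BSA, were preincubated 30 min at 25° C with compound (8 concentrations, triplicate, 1% DMSO) before B1 agonist addition. Ca2+ fluorescence monitored at 538 nm; background-normalized integrated values plotted against log antagonist concentration.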

| Compound | pIC50 |
| --- | --- |
| COc1cc(C)c(S(=O)(=O)N(C)Cc2cc(C(=O)NCc3ccc(CN4CCCCC4)cc3)co2)c(C)c1 [Ex 100, 5-({[(4-Methoxy-2,6-dimethylphenyl)sulfonyl](methyl)amino}methyl)-N-[4-(piperidin-1-ylmethyl)benzyl]furan-3-carboxamide trifluoroacetate] | 6.00 to 7.00 |
| COc1cc(C)c(S(=O)(=O)N(C)Cc2nnc(C(=O)N3CCN(CC4CCCN(C)C4)CC3)o2)c(C)c1 (stereo not shown) [Ex 278, 4-Methoxy-N,2,6-trimethyl-N-{[5-({4-[(1-methylpiperidin-3-yl)methyl]piperazin-1-yl}carbonyl)-1,3,4-oxadiazol-2-yl]methyl}benzenesulfonamide] | 6.00 to 7.00 |
| CN(CCc1ccc(C2=NCCN2)cc1)C(=O)c1coc(CN(C2CC2)S(=O)(=O)c2c(Cl)cc(Cl)cc2Cl)n1 [Ex 215, 2-({Cyclopropyl[(2,4,6-trichlorophenyl)sulfonyl]amino}methyl)-N-{2-[4-(4,5-dihydro-1H-imidazol-2-yl)phenyl]ethyl}-N-methyl-1,3-oxazole-4-carboxamide trifluoroacetate] | 7.00 to 8.00 |
| COc1cc(C)c(S(=O)(=O)N(C)Cc2nc(C(=O)N(C)CCc3ccc(C4=NCCN4)cc3)co2)c(C)c1 [Ex 69, N-{2-[4-(4,5-dihydro-1H-imidazol-2-yl)phenyl]ethyl}-2-({[(4-methoxy-2,6-dimethylphenyl)sulfonyl](methyl)amino}methyl)-N-methyl-1,3-oxazole-4-carboxamide] | > 8.00 |
| COc1cc(C)c(S(=O)(=O)N(C)Cc2cc(C(=O)N(C)Cc3cccc(CN4CCCC4)c3)co2)c(C)c1 [Ex 8, 5-({[(4-methoxy-2,6-dimethylphenyl)sulfonyl](methyl)amino}methyl)-N-methyl-N-[3-(pyrrolidin-1-ylmethyl)benzyl]furan-3-carboxamide] | 7.00 to 8.00 |
| COc1cc(C)c(S(=O)(=O)N(Cc2noc(C(=O)N3CCN(CCN4CCCC4)CC3)n2)C2CC2)c(C)c1 [Ex 318, N-Cyclopropyl-4-methoxy-2,6-dimethyl-N-[(5-{[4-(2-pyrrolidin-1-ylethyl)piperazin-1-yl]carbonyl}-1,2,4-oxadiazol-3-yl)methyl]benzenesulfonamide] | 7.00 to 8.00 |
| CN(CCc1ccc(C2=NCCN2)cc1)C(=O)c1coc(CN(C)S(=O)(=O)c2c(Cl)cc(Br)cc2Cl)c1 [Ex 24, 5-({[(4-bromo-2,6-dichlorophenyl)sulfonyl](methyl)amino}methyl)-N-{2-[4-(4,5-dihydro-1H-imidazol-2-yl)phenyl]ethyl}-N-methylfuran-3-carboxamide] | > 8.00 |
| COc1cc(C)c(S(=O)(=O)N(Cc2cnc(C(=O)N3CCN(CC4CCN(C)CC4)CC3)o2)C2CC2)c(C)c1 [Ex 245, N-Cyclopropyl-4-methoxy-2,6-dimethyl-N-{[2-({4-[(1-methylpiperidin-4-yl)methyl]piperazin-1-yl}carbonyl)-1,3-oxazol-5-yl]methyl}benzenesulfonamide] | 6.00 to 7.00 |
| COc1cc(C)c(S(=O)(=O)N(C)Cc2cc(C(=O)N3CCCC(c4ccc(C5=NCCN5)cc4)C3)co2)c(C)c1 (stereo not shown) [Ex 30, N-{[4-({3-[4-(4,5-dihydro-1H-imidazol-2-yl)phenyl]piperidin-1-yl}carbonyl)furan-2-yl]methyl}-4-methoxy-N,2,6-trimethylbenzenesulfonamide] | > 8.00 |
| COc1cc(C)c(S(=O)(=O)N(C)Cc2cc(C(=O)NCCc3ccc(CN4CCCC4)cc3)co2)c(C)c1 [Ex 46, 5-({[(4-methoxy-2,6-dimethylphenyl)sulfonyl](methyl)amino}methyl)-N-{2-[4-(pyrrolidin-1-ylmethyl)phenyl]ethyl}furan-3-carboxamide] | 6.00 to 7.00 |
| COc1cc(C)c(S(=O)(=O)N(C)Cc2cc(C(=O)NCc3cc(F)cc(CN4CCCC4)c3)co2)c(C)c1 [Ex 155, N-[3-Fluoro-5-(pyrrolidin-1-ylmethyl)benzyl]-5-({[(4-methoxy-2,6-dimethylphenyl)sulfonyl](methyl)amino}methyl)furan-3-carboxamide trifluoroacetate] | 7.00 to 8.00 |
| Cc1cccc(Cl)c1S(=O)(=O)N(Cc1nc(C(=O)N(C)Cc2ccc(CN3CCCC3)cc2)co1)C1CC1 [Ex 220, 2-({[(2-Chloro-6-methylphenyl)sulfonyl](cyclopropyl)amino}methyl)-N-methyl-N-[4-(pyrrolidin-1-ylmethyl)benzyl]-1,3-oxazole-4-carboxamide trifluoroacetate] | 6.00 to 7.00 |
| COc1cc(C)c(S(=O)(=O)N(C)Cc2nnc(C(=O)N3CCN(CC4CCN(C)CC4)CC3)[nH]2)c(C)c1 [Ex 338, 4-Methoxy-N,2,6-trimethyl-N-{[5-({4-[(1-methylpiperidin-4-yl)methyl]piperazin-1-yl}carbonyl)-4H-1,2,4-triazol-3-yl]methyl}benzenesulfonamide] | 6.00 to 7.00 |
| COc1cc(C)c(S(=O)(=O)N(Cc2nc(C(=O)N(C)Cc3ccc(CN4CCC(NC(C)=O)C4)cc3)co2)C2CC2)c(C)c1 (stereo not shown) [Ex 185, N-(4-{[3-(Acetylamino)pyrrolidin-1-yl]methyl}benzyl)-2-({cyclopropyl[(4-methoxy-2,6-dimethylphenyl)sulfonyl]amino}methyl)-N-methyl-1,3-oxazole-4-carboxamide] | > 8.00 |
| COc1cc(C)c(S(=O)(=O)N(C)Cc2cc(C(=O)NCCc3ccc(Nc4ccnc(N)n4)cc3)co2)c(C)c1 [Ex 45, N-(2-{4-[(2-aminopyrimidin-4-yl)amino]phenyl}ethyl)-5-({[(4-methoxy-2,6-dimethylphenyl)sulfonyl](methyl)amino}methyl)furan-3-carboxamide] | 6.00 to 7.00 |
| COc1cc(C)c(S(=O)(=O)N(C)Cc2cc(C(=O)N3CCCC(c4ccc(CN5CCCC5)cc4)C3)co2)c(C)c1 (stereo not shown) [Ex 95, 4-Methoxy-N,2,6-trimethyl-N-{[4-({3-[4-(pyrrolidin-1-ylmethyl)phenyl]piperidin-1-yl}carbonyl)furan-2-yl]methyl}benzenesulfonamide trifluoroacetamide] | 6.00 to 7.00 |
| [2H]C([2H])([2H])N(Cc1nnc(C(=O)N2CCN(CC3CCN(C)CC3)CC2)o1)S(=O)(=O)c1c(C)cc(OC)cc1C [Ex 291, 4-Methoxy-2,6-dimethyl-N-(^2H3)methyl-N-{[5-({4-[(1-methylpiperidin-4-yl)methyl]piperazin-1-yl}carbonyl)-1,3,4-oxadiazol-2-yl]methyl}benzenesulfonamide trifluoroacetate] | 6.00 to 7.00 |
| COc1cc(C)c(S(=O)(=O)N(C)Cc2nc(C(=O)N3CCN(Cc4cccnc4)CC3)no2)c(C)c1 [Ex 323, 4-Methoxy-N,2,6-trimethyl-N-[(3-{[4-(pyridin-3-ylmethyl)piperazin-1-yl]carbonyl}-1,2,4-oxadiazol-5-yl)methyl]benzenesulfonamide] | 6.00 to 7.00 |
| COc1cc(C)c(S(=O)(=O)N(Cc2nc(C(=O)N(C)Cc3ccc4c(c3)CN(C)C4)co2)C2CC2)c(C)c1 [Ex 225, 2-({Cyclopropyl[(4-methoxy-2,6-dimethylphenyl)sulfonyl]amino}methyl)-N-methyl-N-[(2-methyl-2,3-dihydro-1H-isoindol-5-yl)methyl]-1,3-oxazole-4-carboxamide trifluoroacetate] | 7.00 to 8.00 |
| COc1cc(C)c(S(=O)(=O)N(Cc2noc(C(=O)N(C)Cc3ccc(CN4CCCC4)cc3)n2)C2CC2)c(C)c1 [Ex 306, 3-({Cyclopropyl[(4-methoxy-2,6-dimethylphenyl)sulfonyl]amino}methyl)-N-methyl-N-[4-(pyrrolidin-1-ylmethyl)benzyl]-1,2,4-oxadiazole-5-carboxamide trifluoroacetate] | > 8.00 |
| CN(Cc1ccc(CN2CCCC2)cc1)C(=O)c1coc(CN(C2CC2)S(=O)(=O)c2c(Cl)cc(Cl)cc2Cl)n1 [Ex 216, 2-({Cyclopropyl[(2,4,6-trichlorophenyl)sulfonyl]amino}methyl)-N-methyl-N-[4-(pyrrolidin-1-ylmethyl)benzyl]-1,3-oxazole-4-carboxamide trifluoroacetate] | 6.00 to 7.00 |
| CCN(Cc1ccc(CN2CCCC2)cc1)C(=O)c1coc(CN(C)S(=O)(=O)c2c(C)cc(OC)cc2C)c1 [Ex 150, N-Ethyl-5-({[(4-methoxy-2,6-dimethylphenyl)sulfonyl](methyl)amino}methyl)-N-[4-(pyrrolidin-1-ylmethyl)benzyl]furan-3-carboxamide trifluoroacetate] | 7.00 to 8.00 |
| COc1cc(C)c(S(=O)(=O)N(Cc2cc(C(=O)N3CCC(N4CCN(C)CC4)CC3)co2)C2CC2)c(C)c1 [Ex 119, N-Cyclopropyl-4-methoxy-2,6-dimethyl-N-[(4-{[4-(4-methylpiperazin-1-yl)piperidin-1-yl]carbonyl}furan-2-yl)methyl]benzenesulfonamide trifluoroacetate] | 6.00 to 7.00 |
| COc1cc(C)c(S(=O)(=O)N(Cc2nnc(C(=O)N3CCN(C4CCN(C)CC4)CC3)s2)C2CC2)c(C)c1 [Ex 334, N-Cyclopropyl-4-methoxy-2,6-dimethyl-N-[(5-{[4-(1-methylpiperidin-4-yl)piperazin-1-yl]carbonyl}-1,3,4-thiadiazol-2-yl)methyl]benzenesulfonamide] | > 8.00 |
| COc1cc(C)c(S(=O)(=O)N(C)Cc2cc(C(=O)N3CCN(CCN4CCCC4)CC3)co2)c(C)c1 [Ex 39, 4-methoxy-N,2,6-trimethyl-N-[(4-{[4-(2-pyrrolidin-1-ylethyl)piperazin-1-yl]carbonyl}furan-2-yl)methyl]benzenesulfonamide] | 6.00 to 7.00 |
